The values that follow come from article PMC5028882, “Antiviral activities of peptide-based covalent inhibitors of the Enterovirus 71 3C protease” (Scientific Reports, 2016).

Series [1] relates to Coxsackievirus A6 (CA6). Kind of series: Antiviral assay, Coxsackievirus A6-infected RD cells. It is filed as cell-based. The settings on record: 100 nM and 1 μM, virus titre after 12 hours. As to the method:
(§1) RD cells were infected with either Coxsackievirus A6 (CA6), Coxsackievirus A16 (CA16) (strain G-10, GenBank accession no. U05876), patient isolates of Coxsackievirus A6 (CA6), or Echovirus 7 (E7) and subjected to treatment with compound 9 at 100 nM or 1 μM or negative control 0.05% DMSO.
(§2) Human RD cells were cultured in DMEM/F-12 (Gibco) supplemented with 10% FBS (GE Healthcare) and the infection medium used for all infections and compound treatment contained was supplemented with 2% FBS. For the compound treatment assays, monolayers of RD cells were first infected with EV71 at a multiplicity of infection (MOI) of 1 for 1 hour at 37 °C, 5% CO2. The compounds were then introduced to the cells at different concentrations. Culture supernatant was collected at 12 hours post-treatment for determination of infectious virus titre by viral plaque assay. Each culture supernatant was 10-fold serially diluted and 100 μL was added, in triplicates, to a monolayer of RD cells in a 24-well format. The infection was allowed to proceed for 1 h at 37 °C, 5% CO2 before the virus was removed. The cells were then washed to remove unbound virus particles with PBS (pH 7.4) and overlaid with infection medium containing 0.5% agarose. […] Plaques that formed were counted visually and the infectious virus titre was calculated, expressed as the average number of PFU per milliliter (PFU/mL) of sample. […]

The subject of series [2] is EV71-infected human RD cells. Nature of the series: Antiviral cellular assay, EV71-infected RD cells, virus titre by plaque assay. The format is cell-based, human enterovirus 71 (EV71). The settings on record: for EC50: Enterovirus A, read-out: EC50 for EV71 infections; for Antiviral activity on EV71-infected RD cells (in words): virus titre reduction, up to 5 μM, 12 h. The procedure: Human RD cells were cultured in DMEM/F-12 (Gibco) supplemented with 10% FBS (GE Healthcare) and the infection medium used for all infections and compound treatment contained was supplemented with 2% FBS. For the compound treatment assays, monolayers of RD cells were first infected with EV71 at a multiplicity of infection (MOI) of 1 for 1 hour at 37 °C, 5% CO2. The compounds were then introduced to the cells at different concentrations. Culture supernatant was collected at 12 hours post-treatment for determination of infectious virus titre by viral plaque assay. Each culture supernatant was 10-fold serially diluted and 100 μL was added, in triplicates, to a monolayer of RD cells in a 24-well format. The infection was allowed to proceed for 1 h at 37 °C, 5% CO2 before the virus was removed. The cells were then washed to remove unbound virus particles with PBS (pH 7.4) and overlaid with infection medium containing 0.5% agarose. The cells were incubated for 48 hours at 37 °C before they were fixed with 4% paraformaldehyde and stained with crystal violet. Plaques that formed were counted visually and the infectious virus titre was calculated, expressed as the average number of PFU per milliliter (PFU/mL) of sample. The 50% effective concentration, EC50, was determined for selected compounds by a non-linear regression graph fitting of the virus titre obtained at a minimum of 5 different compound concentrations and 0.05% DMSO was included as an untreated control.

Series [3] concerns Echovirus 7 (E7). Kind of series: Antiviral assay, Echovirus 7-infected RD cells. To be noted: 100 nM and 1 μM, virus titre after 12 hours. The format is cell-based. The procedure:
as §1, §2

The nature of series [4]: Parallel artificial membrane permeability assay (PAMPA). To be noted: for Papp at 4 h, 50 μM: pH 7.4, 50 μM, 4 h incubation, read-out: Permeability (P) at pH 7.4. The format is in vitro ADME. As to the method:
PAMPA was conducted by GVK Biosciences (India) using Pion PAMPA Sandwich Plates (Pion Inc., USA). Briefly: test compounds were dissolved in buffer at pH 7.4 to make a 50 μM stock solution. 200 μL was then added to the donor compartment of the plate. The plate was inverted and 200 μL of buffer (pH 7.4) was added to the acceptor compartment. After incubation (4 hours), a 50 μL sample was analyzed by UV using a spectrophotometer. Experiments were conducted in triplicates. Compound permeability (P) was calculated using the formula:
where: CA = compound concentration in the acceptor compartment at 4 h, Ceq = compound concentration at equilibrium at 4 h, A = filter area (0.3 cm^2), VA = acceptor compartment volume (200 μL), VD = donor compartment volume (200 μL), t = incubation time (14,400 s). Compounds with a P value of <10 × 10^−6 cm.s^−1 are considered to have low permeability.
(In general: In PAMPA a lipid-coated filter parts donor from acceptor wells.)

The target in series [5] is T1, EV71 3C protease (Human enterovirus 71, UniProt Q66478). The settings on record: cited from earlier work; for IC50: EV71 3C protease (strain 5865/sin/000009), biochemical protease inhibition assay, read-out: Inhibitory Potency, IC50.
T1 sequence (Q66478 1549-1731): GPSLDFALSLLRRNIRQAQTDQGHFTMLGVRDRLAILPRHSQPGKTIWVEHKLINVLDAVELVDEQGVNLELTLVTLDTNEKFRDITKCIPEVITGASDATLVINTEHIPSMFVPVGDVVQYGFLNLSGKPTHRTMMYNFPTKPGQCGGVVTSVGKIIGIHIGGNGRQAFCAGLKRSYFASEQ
The subject of series [6] is Coxsackievirus A16 (CA16). Nature of the series: Antiviral assay, Coxsackievirus A16-infected RD cells. The format is cell-based. The settings on record: 100 nM and 1 μM, virus titre after 12 hours. As to the method:
as §1, §2

Series [7] has as its target T1, EV71 3C protease. Nature of the series: EV71 3C protease inhibition assay (chromogenic substrate succinyl-EALFQ-pNA). The format is biochemical. To be noted: EV71 3C protease 6 μM, 2 h preincubation at 25 °C, pH 7.0; read-out: Inhibitory Potency, IC50. As to the method: EV71 3C protease inhibition assays were based on a published procedure[7] and performed in a buffer containing Tris-HCl (50 mM), NaCl (150 mM), EDTA (1 mM), glycerol (10% v/v) and DTT (2 mM) at pH 7.0. The protease (6 μM) and varying inhibitor concentrations were incubated at 25 °C for 2 h. The final DMSO concentration was maintained at 2%. After that, the chromogenic peptide substrate succinyl-EALFQ-pNA (Peptides International, USA) was added to make a final concentration of 200 μM. The contents were incubated at 25 °C for 2 h. Absorbance at 405 nm was measured with a plate reader at 30 °C. All experiments were conducted in duplicates. IC50 values were derived by fitting the initial velocity against the log [inhibitor] using GraphPad Prism 5 software (USA).

By EC50 is commonly meant the concentration needed to bring the measured effect to its halfway point. In general, IC50 refers to the concentration that inhibits the measured activity by half.

Entries after “also recorded” stand apart in the source; their conditions may differ. Like-named read-outs stand apart in the source and are kept apart here.

For the molecule `CCOC(=O)/C=C/[C@H](C[C@@H]1CCNC1=O)NC(=O)[C@@H](CC(=O)[C@@H](NC(=O)c1cc(C)on1)C(C)C)Cc1ccc(F)cc1` [Compound 1, Rupintrivir, reference compound], the “Antiviral activity against Coxsackievirus A6 (in words)” value in series [1] is “demonstrated antiviral activities”. In addition, the EC50 in series [2] (EV71-infected RD cells, virus titre by plaque assay) is 0.016 µM. Also, the “Antiviral activity on EV71-infected RD cells (in words)” value in series [2] is on record as “significant reduction in viral titre”. Besides, the “Antiviral activity against Echovirus 7 (in words)” value in series [3] is “demonstrated antiviral activities”. Besides, in series [4] (pH 7.4), the “Membrane permeability (in words)” value is “highly membrane permeable”. Besides, the Papp at 4 h, 50 μM in series [4] came out at 46.9 ± 4.7 ×10⁻⁶ cm/s. In addition, in series [5], the IC50 is 7.3 ± 0.8 µM. Also, in series [5] (earlier reports), the “Inhibition of EV71 3C protease (in words)” value is given as “micromolar potency”. Moreover, in series [6], the “Antiviral activity against Coxsackievirus A16 (in words)” value is reported as “demonstrated antiviral activities”.

Consider `CCOC(=O)/C=C/[C@H](C[C@@H]1CCNC1=O)NC(=O)[C@@H]1[C@@H](c2ccccc2)CCN1C(=O)[C@@H](NC(=O)c1cc(C)on1)C(C)C` [Compound 2], for which the “Antiviral activity on EV71-infected RD cells (in words)” value in series [2] was “failed to demonstrate significant antiviral activity; also recorded: weakly active”. Besides, the “Fold less permeable than Rupintrivir” value in series [4] (pH 7.4) was “approximately 7 fold”. The Papp at 4 h, 50 μM in series [4] worked out at 7.1 ± 0.9 ×10⁻⁶ cm/s. In addition, the IC50 in series [5] was 3.2 ± 0.5 µM. For the same molecule, the “Fold more potent than Rupintrivir in the protease inhibition assay” value in series [5] (IC50 compared with Rupintrivir) is reported as 2 fold.

Regarding `CCOC(=O)/C=C/[C@H](C[C@@H]1CCNC1=O)NC(=O)[C@H](Cc1ccc(F)cc1)NC(=O)[C@@H](NC(=O)c1cc(C)on1)C(C)C` [Compound 3], the “Antiviral activity on EV71-infected RD cells (in words)” value in series [2] is on record as “significantly less potent than Rupintrivir”. For the same molecule, in series [4] (pH 7.4), the “Fold less permeable than Rupintrivir” value is reported as “approximately 2 fold”. Further, the Papp at 4 h, 50 μM in series [4] amounted to 25.1 ± 3.6 ×10⁻⁶ cm/s. In addition, the IC50 in series [7] came to 6.2 ± 0.6 µM.

Turning to `CCOC(=O)/C=C/[C@H](C[C@@H]1CCNC1=O)NC(=O)[C@@H](CC(=O)[C@@H](NC(=O)c1cccnn1)C(C)C)Cc1ccc(F)cc1` [Compound 4, ethyl-(S,E)-4-(2R,5S)-2-(4-fluorobenzyl)-6-methyl-4-oxo-5-pyridazine-3-carboxamidoheptanamido-5-(S)-2-oxopyrrolidin-3-yl-pent-2-enoate], the “Antiviral activity on EV71-infected RD cells (in words)” value in series [2] was “significantly reduced”. For the same molecule, the Papp at 4 h, 50 μM in series [4] came out at 12.6 ± 1.8 ×10⁻⁶ cm/s. The IC50 in series [7] was 9.3 ± 0.6 µM.

With `CCOC(=O)/C=C/[C@H](C[C@@H]1CCNC1=O)NC(=O)[C@@H](CC(=O)[C@@H](NC(=O)c1ccccn1)C(C)C)Cc1ccc(F)cc1` [Compound 5, ethyl-(S,E)-4-(2R,5S)-2-(4-fluorobenzyl)-6-methyl-4-oxo-5-picolinamidoheptanamido-5-(S)-2-oxopyrrolidin-3-yl-pent-2-enoate], in series [2], the “Antiviral activity on EV71-infected RD cells (in words)” value is given as “did not exhibit significant antiviral activity”. In addition, the Papp at 4 h, 50 μM in series [4] is 14.9 ± 3.3 ×10⁻⁶ cm/s. In addition, in series [7], the IC50 was determined as 22.4 ± 3.5 µM.

As to `CCOC(=O)/C=C/[C@H](C[C@@H]1CCNC1=O)NC(=O)[C@@H](CC(=O)[C@@H](NC(=O)c1cccnc1)C(C)C)Cc1ccc(F)cc1` [Compound 6, ethyl-(S,E)-4-(2R,5S)-2-(4-fluorobenzyl)-6-methyl-5-nicotinamido-4-oxoheptanamido-5-(S)-2-oxopyrrolidin-3-yl-pent-2-enoate], the “Antiviral activity on EV71-infected RD cells (in words)” value in series [2] is recorded as “did not exhibit significant antiviral activity”. Moreover, the Papp at 4 h, 50 μM in series [4] was found to be 16.9 ± 5.2 ×10⁻⁶ cm/s. Moreover, in series [7], the IC50 was over 100 µM.

As to `CCOC(=O)/C=C/[C@H](C[C@@H]1CCNC1=O)NC(=O)[C@@H](CC(=O)[C@@H](NC(=O)c1nnccc1C)C(C)C)Cc1ccc(F)cc1` [Compound 7, ethyl-(S,E)-4-(2R,5S)-2-(4-fluorobenzyl)-6-methyl-5-(4-methylpyridazine-3-carboxamido)-4-oxoheptanamido-5-(S)-2-oxopyrrolidin-3-yl-pent-2-enoate], in series [2], the “Antiviral activity on EV71-infected RD cells (in words)” value was “inferior compared to Rupintrivir; also recorded: failed to demonstrate significant antiviral activity”. Also, in series [4], the Papp at 4 h, 50 μM stood at 11.6 ± 2.3 ×10⁻⁶ cm/s. In addition, the IC50 in series [7] is 5.2 ± 1 µM.

Regarding `CCOC(=O)/C=C/[C@H](C[C@@H]1CCNC1=O)NC(=O)[C@@H](CC(=O)[C@@H](NC(=O)c1ccc(C)nn1)C(C)C)Cc1ccc(F)cc1` [Compound 8, ethyl-(S,E)-4-(2R,5S)-2-(4-fluorobenzyl)-6-methyl-5-(6-methylpyridazine-3-carboxamido)-4-oxoheptanamido-5-(S)-2-oxopyrrolidin-3-yl-pent-2-enoate], in series [2], the “Antiviral activity on EV71-infected RD cells (in words)” value was “inferior compared to Rupintrivir; also recorded: failed to demonstrate significant antiviral activity”. Further, the Papp at 4 h, 50 μM in series [4] was 12.6 ± 0.7 ×10⁻⁶ cm/s. Also, the IC50 in series [7] came to 3.7 ± 0.6 µM.

As for `CCOC(=O)/C=C/[C@H](C[C@@H]1CCNC1=O)NC(=O)[C@@H](CC(=O)[C@@H](NC(=O)C(F)(F)F)C(C)C)Cc1ccc(F)cc1` [Compound 9], in series [1], the “Antiviral activity against Coxsackievirus A6 (in words)” value is given as “potent antiviral activity; also recorded: demonstrated antiviral activities”. Further, the EC50 in series [2] (EV71, RD) stood at 0.065 µM. In addition, the “Antiviral activity on EV71-infected RD cells (in words)” value in series [2] was “exhibited antiviral activity; also recorded: potent antiviral activity”. Further, the “Antiviral activity against Echovirus 7 (in words)” value in series [3] is “potent antiviral activity; also recorded: demonstrated antiviral activities”. Also, the Papp at 4 h, 50 μM in series [4] is 32.7 ± 6.7 ×10⁻⁶ cm/s. Moreover, in series [7], the IC50 worked out at 7.7 ± 0.8 µM. Further, the “Antiviral activity against Coxsackievirus A16 (in words)” value in series [6] is “potent antiviral activity; also recorded: demonstrated antiviral activities”.

On to `CCOC(=O)/C=C/[C@H](C[C@@H]1CCNC1=O)NC(=O)[C@@H](CC(=O)[C@@H](NC(=O)C(C)(C)C)C(C)C)Cc1ccc(F)cc1` [Compound 10, ethyl-(S,E)-4-(2R,5S)-2-(4-fluorobenzyl)-6-methyl-4-oxo-5-pivalamidoheptanamido-5-(S)-2-oxopyrrolidin-3-yl-pent-2-enoate], for which the “Antiviral activity on EV71-infected RD cells (in words)” value in series [2] was “abrogation of both biochemical and cellular activity”. In series [4], the Papp at 4 h, 50 μM came out at 15 ± 2.6 ×10⁻⁶ cm/s. In series [7], the IC50 was over 100 µM.

With `CCOC(=O)/C=C/[C@H](C[C@@H]1CCNC1=O)NC(=O)[C@@H](CC(=O)[C@@H](NC(=O)C(C)C)C(C)C)Cc1ccc(F)cc1` [Compound 11, ethyl-(S,E)-4-(2R,5S)-2-(4-fluorobenzyl)-5-isobutyramido-6-methyl-4-oxoheptanamido-5-(S)-2-oxopyrrolidin-3-yl-pent-2-enoate], the “Antiviral activity on EV71-infected RD cells (in words)” value in series [2] is “significantly reduced antiviral activity”. Also, the Papp at 4 h, 50 μM in series [4] was 16.9 ± 0.8 ×10⁻⁶ cm/s. The IC50 in series [7] is 11.7 ± 0.7 µM.
